Measurements published in US7741341B2, “Benzimidazole-derivatives as factor Xa inhibitors” (sanofi-aventis Deutschland GmbH, priority 2003, dated 2010).
pKi: −log10 of the molar value.

Target: T1, human factor Xa (Homo sapiens, UniProt P00742)
T1 construct: human factor Xa (Enzyme Research Laboratories, Inc; South Bend, Ind.); purchased Enzyme Research Laboratories, Inc; South Bend, Ind
Test: Factor Xa assay (chromogenic, substrate S-2765)
Type: biochemical
Details: read-out: Ki(FXa)
Description: Purified enzymes were used in chromogenic assays.
The IC50 was determined by combining in appropriate wells of a Costar half-area microtiter plate 25 μl human factor Xa (Enzyme Research Laboratories, Inc.; South Bend, Ind.) in TBS-PEG; 40 μl 10% (v/v) DMSO in TBS-PEG (uninhibited control) or various concentrations of the compound to be tested diluted in 10% (v/v) DMSO in TBS-PEG; and substrate S-2765 (N(α)-benzyloxycarbonyl-D-Arg-Gly-L-Arg-p-nitroanilide; Kabi Pharmacia, Inc.; Franklin, Ohio) in TBS-PEG.
The assay was performed by pre-incubating the compound of formula I plus enzyme for 10 min. Then the assay was initiated by adding substrate to obtain a final volume of 100 μl. […] The enzyme concentration was 0.5 nM and substrate concentration was 140 μM.

T1 sequence (P00742 235-488 limits assumed): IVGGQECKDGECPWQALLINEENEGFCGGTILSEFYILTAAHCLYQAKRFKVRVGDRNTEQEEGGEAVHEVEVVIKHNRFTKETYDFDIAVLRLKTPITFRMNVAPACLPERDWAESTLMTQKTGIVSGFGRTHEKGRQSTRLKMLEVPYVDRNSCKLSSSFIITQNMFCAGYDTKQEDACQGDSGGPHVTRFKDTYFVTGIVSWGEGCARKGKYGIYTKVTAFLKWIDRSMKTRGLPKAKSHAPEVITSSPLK
T1 sequence (P00742 41-179 partner limits assumed): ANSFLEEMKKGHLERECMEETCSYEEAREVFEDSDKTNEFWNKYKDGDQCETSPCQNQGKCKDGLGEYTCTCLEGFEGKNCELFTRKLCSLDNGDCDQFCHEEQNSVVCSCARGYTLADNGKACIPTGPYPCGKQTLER

For CCOC(=O)OC(C)OC(=O)c1ccc2c(c1)nc(C(=O)NC1CCN(C(C)C)CC1)n2Cc1cc(-c2ccc(Cl)s2)on1 (stereo not shown) [Example 27, 1-[5-(5-Chloro-thiophen-2-yl)-isoxazol-3-ylmethyl]-2-(1-isopropyl-piperidin-4-ylcarbamoyl)-1H-benzoimidazole-5-carboxylic acid 1-ethoxycarbonyloxy-ethyl ester], the pKi was 7.90.

For CC(OC(=O)OC1CCCCC1)OC(=O)c1ccc2c(c1)nc(C(=O)NC1CCN(C(C)C)CC1)n2Cc1cc(-c2ccc(Cl)s2)on1 (stereo not shown) [Example 28, 1-[5-(5-Chloro-thiophen-2-yl)-isoxazol-3-ylmethyl]-2-(1-isopropyl-piperidin-4-ylcarbamoyl)-1H-benzoimidazole-5-carboxylic acid 1-cyclohexyloxycarbonyloxy-ethyl ester], the pKi was 7.32.

CC(C)N1CCC(NC(=O)c2nc3cc(S(=O)(=O)CCO)ccc3n2Cc2cc(-c3ccc(Cl)s3)on2)CC1 [Example 29a, 1-[5-(5-Chloro-thiophen-2-yl)-isoxazol-3-ylmethyl]-5-(2-hydroxy-ethanesulfonyl)-1H-benzoimidazole-2-carboxylic acid (1-isopropyl-piperidin-4-yl)-amide] showed a pKi of 7.59.

CC(C)N1CCC(NC(=O)c2nc3ccc(S(=O)(=O)CCO)cc3n2Cc2cc(-c3ccc(Cl)s3)on2)CC1 [Example 29b, 1-[5-(5-Chloro-thiophen-2-yl)-isoxazol-3-ylmethyl]-6-(2-hydroxy-ethanesulfonyl)-1H-benzoimidazole-2-carboxylic acid (1-isopropyl-piperidin-4-yl)-amide] showed a pKi of 7.94.

For CC(C)N1CCC(NC(=O)c2nc3c(C(=O)NCCO)cccc3n2CC(=O)Nc2ccc(Cl)cn2)CC1 [Example 30, 1-[(5-Chloro-pyridin-2-ylcarbamoyl)-methyl]-1H-benzoimidazole-2,4-dicarboxylic acid 4-[(2-hydroxy-ethyl)-amide] 2-[(1-isopropyl-piperidin-4-yl)-amide]], the pKi was 8.05.

Work on CC(C)N1CCC(NC(=O)c2nc3c(C(=O)N(C)CCO)cccc3n2CC(=O)Nc2ccc(Cl)cn2)CC1 [Example 31, 1-[(5-Chloro-pyridin-2-ylcarbamoyl)-methyl]-1H-benzoimidazole-2,4-dicarboxylic acid 4-[(2-hydroxy-ethyl)-methyl-amide] 2-[(1-isopropyl-piperidin-4-yl)-amide]] yielded a pKi of 7.81.

Molecule CC(C)N1CCC(NC(=O)c2nc3c(C(=O)N4CC(O)C4)cccc3n2CC(=O)Nc2ccc(Cl)cn2)CC1 [Example 32, 1-[(5-Chloro-pyridin-2-ylcarbamoyl)-methyl]-4-(3-hydroxy-azetidine-1-carbonyl)-1H-benzoimidazole-2-carboxylic acid (1-isopropyl-piperidin-4-yl)-amide] has a pKi of 7.98.

Work on CCOC(=O)OC(C)OC(=O)c1cccc2c1nc(C(=O)NC1CCN(C(C)C)CC1)n2CC(=O)Nc1ccc(Cl)cn1 (stereo not shown) [Example 33, 1-[(5-Chloro-pyridin-2-ylcarbamoyl)-methyl]-2-(1-isopropyl-piperidin-4-ylcarbamoyl)-1H-benzoimidazole-4-carboxylic acid 1-ethoxycarbonyloxy-ethyl ester] yielded a pKi of 7.90.

CC(OC(=O)OC1CCCCC1)OC(=O)c1cccc2c1nc(C(=O)NC1CCN(C(C)C)CC1)n2CC(=O)Nc1ccc(Cl)cn1 (stereo not shown) [Example 34, 1-[(5-Chloro-pyridin-2-ylcarbamoyl)-methyl]-2-(1-isopropyl-piperidin-4-ylcarbamoyl)-1H-benzoimidazole-4-carboxylic acid 1-cyclohexyloxycarbonyloxy-ethyl ester] showed a pKi of 7.71.

For O=C(Cn1c(C(=O)Nc2ccc(N3CCOCC3=O)cc2)nc2ccccc21)Nc1ccc(Cl)cn1 [Example 35, 1-[(5-Chloro-pyridin-2-ylcarbamoyl)-methyl]-1H-benzoimidazole-2-carboxylic acid [4-(3-oxo-morpholin-4-yl)-phenyl]-amide], the pKi was 7.39.
